The text below walks through data of patent US20220002427A1, “BISPECIFIC ANTIBODY AGAINST BCMA AND CD3 AND AN IMMUNOLOGICAL DRUG FOR COMBINED USE IN TREATING MULTIPLE MYELOMA” (ENGMAB SARL, priority 2016, published 2022).

The assay concerns H929 MM cells. Description: H929 MM cell lysis with TCB alone or combined with lenalidomide, anti-PD-1 or daratumumab (co-culture with human leukocytes, flow cytometry). The class given is cell-based. Particulars: H929 cells + leucocytes of Donor 1, 48 h. From the text:
FIGS. 21A-21B. Redirected T-cell lysis of H929 MM cells induced by anti-BCMA/anti-CD3 T-cell bispecific antibodies in combination with thalidomide derivatives (lenalidomide) or immunotherapeutic derivatives (anti-PD1 and anti-CD38 antibodies) as measured by flow cytometry. H929 MM cells were co-cultured with human leukocytes (n=1 or 5) and challenged to suboptimal concentrations of anti-BCMA/anti-CD3 T-cell bispecific antibody 83A10-TCcv (10 pM) (FIG. 21A) or 42-TCBcv (10 pM) (FIG. 21B) alone, in combination with suboptimal concentrations of lenalidomide (1 μM), anti-PD-1 (10 μg/ml) and anti-CD38 daratumumab (10 μg/ml).
Anti-BCMA/anti-CD3 T-cell bispecific antibody (namely 83A10-TCBcv or 42-TCBcv) was combined with three drugs representing different types of immunotherapy: lenalidomide, anti-PD-1 antibody and anti-CD38 antibody daratumumab. H929 MM cells were co-cultured with human leukocytes from healthy donors (n=1 or 5) in RPMI-1640 medium supplemented with 10% FBS, 0.5% gentamincin and 1% L-Glutamine at 37° C. in a humidified 5% CO2 incubator and challenged to suboptimal concentrations of 83A10-TCBcv (10 pM) (n=5) or 42-TCBcv (10 pM) (n=1) alone, or in combination with lenalidomide (1 μM), anti-PD-1 antibody (10 μg/ml) and anti-CD38 antibody daratumumab (10 μg/ml). […] FIG. 21B and Table 28 show the percentage of MM cell lysis when H929 cells and leucocytes from one healthy donor were exposed to 42-TCBcv (10 pM) combined with lenalidomide (1 μM), anti-PD-1 antibody (10 μg/ml) and anti-CD38 antibody daratumumab (10 μg/ml) for 48 h of culture.
For orientation: Flow cytometry measures light scatter and fluorescence of single cells or particles in a stream.

Setting [1] is: with TCB (combination with 42-TCBcv).

Turning to `Nc1cccc2c1CN(C1CCC(=O)NC1=O)C2=O` (stereo not shown) [lenalidomide], the MM cell lysis is reported as 13.27% under setting [1] and −1.78% (without TCB).
Consider “Daratumumab: anti-CD38 antibody (US20150246123)”, for which the MM cell lysis is, setting by setting: under setting [1], 42.29%; (without TCB) 33.06%.
